Results on 9 compounds are retold here after ChEMBL document CHEMBL4831492, “Design and synthesis of 2-(2-isonicotinoylhydrazineylidene)propanamides as InhA inhibitors with high antitubercular activity” (Eur J Med Chem, 2021).

Data set [1] concerns Mycobacterium avium. In words: Antimycobacterial activity against drug resistant Mycobacterium avium 330/88 assessed as minimal inhibitory concentration required for complete inhibition of mycobacterial growth incubated for 14 days. It is filed as functional. As to conditions: 330/88, 336 h, time 14 day.
For data set [2], the system named is Mycobacterium kansasii. In words: Antimycobacterial activity against drug resistant Mycobacterium kansasii 6509/96 assessed as minimal inhibitory concentration required for complete inhibition of mycobacterial growth incubated for 21 days. The data set is classed as functional. As to conditions: 6509/96, 504 h, time 21 day.
Data set [3] has as its system Mycobacterium tuberculosis. In words: Antimycobacterial activity against drug susceptible Mycobacterium tuberculosis H37Rv assessed as minimal inhibitory concentration required for complete inhibition of mycobacterial growth incubated for 14 days. As to conditions: 336 h, time 14 day. The data set is classed as functional.
Data set [4] concerns Mycobacterium avium. In words: Antimycobacterial activity against drug resistant Mycobacterium avium 330/88 assessed as minimal inhibitory concentration required for complete inhibition of mycobacterial growth incubated for 21 days. It is filed as functional. As to conditions: 330/88, 504 h, time 21 day.
The test system of data set [5] is Mycobacterium kansasii. In words: Antimycobacterial activity against drug resistant Mycobacterium kansasii 6509/96 assessed as minimal inhibitory concentration required for complete inhibition of mycobacterial growth incubated for 14 days. It is filed as functional. As to conditions: 6509/96, 336 h, time 14 day.
In data set [6] the test system is Mycobacterium tuberculosis. In words: Antimycobacterial activity against drug susceptible Mycobacterium tuberculosis H37Rv assessed as minimal inhibitory concentration required for complete inhibition of mycobacterial growth incubated for 21 days. It is filed as functional. As to conditions: 504 h, time 21 day.
Data set [7] concerns Mycobacterium kansasii. In words: Antimycobacterial activity against drug resistant Mycobacterium kansasii 6509/96 assessed as minimal inhibitory concentration required for complete inhibition of mycobacterial growth incubated for 7 days. The data set is classed as functional. As to conditions: 6509/96, 168 h, time 7 day.
Data set [8] concerns Mycobacterium avium. In words: Antimycobacterial activity against drug resistant Mycobacterium avium 330/88 assessed as inhibition of mycobacterial growth at 500 uM incubated for 14 days. It is filed as functional, organism-based. As to conditions: time 14.0 day.
In data set [9] the test system is Mycobacterium avium. The data set can be described thus: Antimycobacterial activity against drug resistant Mycobacterium avium 330/88 assessed as inhibition of mycobacterial growth at 500 uM incubated for 21 days. The data set is classed as functional, organism-based. As to conditions: time 21.0 day.
The nature of data set [10]: Selectivity index, ratio of CC50 for cytotoxicity against human HepG2 cells to MIC for antimycobacterial activity against drug susceptible Mycobacterium […]. The data set is classed as toxicity, cell-based. As to conditions: read-out: Selectivity Index.
In data set [11] the test system is Mycobacterium kansasii. In words: Antimycobacterial activity against drug resistant Mycobacterium kansasii 235/80 assessed as minimal inhibitory concentration required for complete inhibition of mycobacterial growth incubated for 21 days. The data set is classed as functional. As to conditions: 235/80, 504 h, time 21 day.
The subject of data set [12] is HepG2. The data set can be described thus: Cytotoxicity against human HepG2 cells assessed as reduction in cell viability incubated overnight followed by compound washout by MTT assay. The data set is classed as cell-based.
Data set [13] in a line: Selectivity index, ratio of CC50 for cytotoxicity against human HepG2 cells to MIC for antimycobacterial activity against drug susceptible Mycobacterium tuberculosis H37Rv. It is filed as toxicity, cell-based. As to conditions: read-out: Selectivity Index.
For data set [14], the system named is HepG2. The data set can be described thus: Cytostatic activity in human HepG2 cells assessed as reduction in cell viability incubated overnight followed by compound washout and further incubated for 72 hrs in medium containing serum by MTT assay. As to conditions: HepG2, 72 h. The data set is classed as functional, cell-based.
Data set [15] has as its system Mycobacterium kansasii. In words: Antimycobacterial activity against drug resistant Mycobacterium kansasii 235/80 assessed as minimal inhibitory concentration required for complete inhibition of mycobacterial growth incubated for 7 days. As to conditions: 235/80, 168 h, time 7 day. The data set is classed as functional.
Data set [16] deals with Mycobacterium kansasii. The data set can be described thus: Antimycobacterial activity against drug resistant Mycobacterium kansasii 235/80 assessed as minimal inhibitory concentration required for complete inhibition of mycobacterial growth incubated for 14 days. It is filed as functional. As to conditions: 235/80, 336 h, time 14 day.

pIC50: −log10 of the molar value. In brackets after ≈: the same amount, converted by molar mass. Activity calls are given as the source filed them. The rule behind the calls is not given here. Some results are limits rather than exact numbers.

Regarding `C/C(=N\NC(=O)c1ccncc1)C(=O)Nc1ccc(OC(F)F)cc1`, the MIC in the data set on Mycobacterium avium [1] is > 1000 µM; with Mycobacterium kansasii [2] it was 8 µM (≈ 2.79 µg/mL); in data set [3], 0.25 µM (≈ 0.0871 µg/mL); in the data set on Mycobacterium avium [4] it was > 1000 µM; with Mycobacterium kansasii [5], 4 µM (≈ 1.39 µg/mL); in [6], 0.5 µM (≈ 0.174 µg/mL). Further, the MIC with Mycobacterium kansasii [7] came out at 2 µM (≈ 0.697 µg/mL).
For `C/C(=N\NC(=O)c1ccncc1)C(=O)Nc1cccc(I)c1`, the MIC in the data set with Mycobacterium avium [1] is > 1000 µM; in the data set with Mycobacterium kansasii [2], 8 µM (≈ 3.27 µg/mL); in data set [3], 0.125 µM (≈ 0.051 µg/mL); in the data set on Mycobacterium avium [4] it was > 1000 µM; in the data set on Mycobacterium kansasii [5], 8 µM (≈ 3.27 µg/mL); in data set [6] it was 0.5 µM (≈ 0.204 µg/mL). Further, the MIC with Mycobacterium kansasii [7] was 4 µM (≈ 1.63 µg/mL).
With `C/C(=N\NC(=O)c1ccncc1)C(=O)Nc1cccc(F)c1`, the MIC amounted to 8 µM (≈ 2.4 µg/mL) in the data set with Mycobacterium kansasii [2]; 0.25 µM (≈ 0.0751 µg/mL) in data set [3]; 4 µM (≈ 1.2 µg/mL) in the data set on Mycobacterium kansasii [5]; 0.25 µM (≈ 0.0751 µg/mL) in [6]; 2 µM (≈ 0.601 µg/mL) in the data set with Mycobacterium kansasii [7]. Besides, the outcome in the data set with Mycobacterium avium [8] and in the data set with Mycobacterium avium [9] was inactive.
Turning to `C/C(=N\NC(=O)c1ccncc1)C(=O)Nc1cccc(Br)c1`, the MIC in the data set on Mycobacterium avium [1] was > 1000 µM; in the data set on Mycobacterium kansasii [2], 8 µM (≈ 2.89 µg/mL); in data set [3] it was 0.125 µM (≈ 0.0451 µg/mL); with Mycobacterium avium [4], > 1000 µM; with Mycobacterium kansasii [5], 8 µM (≈ 2.89 µg/mL); in data set [6], 0.125 µM (≈ 0.0451 µg/mL). For the same compound, in the data set with Mycobacterium kansasii [7], the MIC worked out at 4 µM (≈ 1.44 µg/mL).
In the case of `C/C(=N\NC(=O)c1ccncc1)C(=O)Nc1cc(Cl)cc(Cl)c1`, the MIC is > 250 µM with Mycobacterium avium [1]; > 250 µM in the data set with Mycobacterium kansasii [11]; 32 µM (≈ 11.2 µg/mL) in the data set with Mycobacterium kansasii [2]; ≤ 0.25 µM in data set [3]; > 250 µM in the data set with Mycobacterium kansasii [15]; > 250 µM in the data set on Mycobacterium avium [4]. For the same compound, the MIC in the data set on Mycobacterium kansasii [16] was > 250 µM; with Mycobacterium kansasii [5] it was 16 µM (≈ 5.62 µg/mL); in [6], 0.25 µM (≈ 0.0878 µg/mL); in the data set with Mycobacterium kansasii [7], 16 µM (≈ 5.62 µg/mL). The results for the selectivity ratio in data set [10] and in data set [13] were > 1.56 and > 200, respectively. The pIC50 in the data set with HepG2 [12] and in the data set with HepG2 [14] was < 4.30 in each case.
`C/C(=N\NC(=O)c1ccncc1)C(=O)Nc1cccc(C(F)(F)F)c1`: the MIC in the data set with Mycobacterium avium [1] is > 1000 µM; in the data set on Mycobacterium kansasii [2] it was 8 µM (≈ 2.8 µg/mL); in data set [3], 0.125 µM (≈ 0.0438 µg/mL); in the data set on Mycobacterium avium [4] it was > 1000 µM; in the data set on Mycobacterium kansasii [5], 4 µM (≈ 1.4 µg/mL); in data set [6] it was 0.25 µM (≈ 0.0876 µg/mL). In addition, the minimum inhibitory concentration (MIC) in the data set with Mycobacterium kansasii [7] is 2 µM (≈ 0.701 µg/mL).
In the case of `C/C(=N\NC(=O)c1ccncc1)C(=O)Nc1ccc(F)c(F)c1`, the MIC in the data set on Mycobacterium kansasii [2] amounted to 8 µM (≈ 2.55 µg/mL); in data set [3], 0.25 µM (≈ 0.0796 µg/mL); in the data set on Mycobacterium kansasii [5], 4 µM (≈ 1.27 µg/mL); in data set [6] it was 0.5 µM (≈ 0.159 µg/mL); with Mycobacterium kansasii [7] it was 2 µM (≈ 0.637 µg/mL). Also, the outcome with Mycobacterium avium [8] and with Mycobacterium avium [9] was inactive.
For `C/C(=N\NC(=O)c1ccncc1)C(=O)O` [PYRUVIC ACID ISONIAZID], the MIC in the data set with Mycobacterium avium [1] is 500 µM (≈ 104 µg/mL); with Mycobacterium kansasii [11], 16 µM (≈ 3.32 µg/mL); in the data set on Mycobacterium kansasii [2], 16 µM (≈ 3.32 µg/mL); in data set [3] it was 1 µM (≈ 0.207 µg/mL); with Mycobacterium kansasii [15], 8 µM (≈ 1.66 µg/mL); in the data set on Mycobacterium avium [4], > 1000 µM. Further, the MIC is 16 µM (≈ 3.32 µg/mL) in the data set on Mycobacterium kansasii [16], 16 µM (≈ 3.32 µg/mL) in the data set on Mycobacterium kansasii [5], 1 µM (≈ 0.207 µg/mL) in [6] and 8 µM (≈ 1.66 µg/mL) in the data set on Mycobacterium kansasii [7]. In addition, the selectivity ratio is > 3.12 in data set [10] and > 50 in [13]. The pIC50 in the data set on HepG2 [12] and in the data set on HepG2 [14] was < 4.30 each time.
Take `C/C(=N\NC(=O)c1ccncc1)C(=O)Nc1cccc(OC(F)(F)F)c1`: the MIC with Mycobacterium kansasii [2] is 8 µM (≈ 2.93 µg/mL); in data set [3], 0.125 µM (≈ 0.0458 µg/mL); in the data set with Mycobacterium kansasii [5], 8 µM (≈ 2.93 µg/mL); in data set [6], 0.5 µM (≈ 0.183 µg/mL); in the data set with Mycobacterium kansasii [7], 4 µM (≈ 1.47 µg/mL). Further, the result in the data set on Mycobacterium avium [8] and in the data set with Mycobacterium avium [9] was inactive.
